“Also recorded” adds a separate entry of the source.
Key:
[1] = tested on: morphine-dependent rat model (MD model) of hot flush; test: morphine-dependent naloxone-induced flush (MD model) of hot flush, tail skin temperature; type: in vivo; conditions: for effect of the combination with 5-HT2a receptor antagonist on abating naloxone-induced flush: MDL-100907 0.01 mg/kg sc + desipramine 1 mg/kg or venlafaxine 10 mg/kg sc; for effect on MDL-100907-induced pre-naloxone flush (words): given sc 40 min prior to naloxone, after MDL-100907 0.01 mg/kg (55 min prior), desipramine 1 mg/kg; for effect on MDL-100907-induced pre-naloxone flush (words) / abatement of 5-HT2a receptor antagonist-induced pre-naloxone flush: venlafaxine 10 mg/kg, 15 min pre-naloxone; for abatement of 5-HT2a receptor antagonist-induced pre-naloxone flush: given sc after MDL-100907 (0.01 mg/kg), desipramine 1.0 mg/kg, compared to MDL treated animals
[2] = desipramine 300-500 mg/day; fluoxetine 20 mg/day; cited from earlier work

In the case of `COc1cc(CC(C)N)c(OC)cc1I` (centres unmarked) [DOI], the “effect of 5-HT2a receptor agonist on MDL-100907-induced flush” value ([1]; DOI 0.3 mg/kg sc, 15 min prior to MDL-100907 (0.01 and 0.1 mg/kg)) is reported as “block; also recorded: abated; also recorded: abatement”.
With `COc1cccc(C(O)C2CCN(CCc3ccc(F)cc3)CC2)c1OC` (stereo not drawn) [MDL-100907, (+)-α-(2,3-dimethoxyphenyl)-1-[2-(4-fluorophenyl)ethyl]-4-piperidinemethanol] the “effect of the combination with 5-HT2a receptor antagonist on abating naloxone-induced flush” value (shortened to “effect of the combination”) ([1]; 15 min post-naloxone, listed as MDL-100902) was “enhances desipramine's effect on abating naloxone-induced flush; also recorded: enhances venlafaxine's effect on a naloxone-induced flush”, the “effect of 5-HT2a receptor antagonist on DOI alleviation of naloxone-induced flush” value ([1]; MDL-100907 (0.01 and 0.1 mg/kg sc) after DOI 0.3 mg/kg sc, maximal flush, 15 min post-naloxone) was “reverse the efficacy of the 5-HT2a agonist in abating the naloxone-induced flush; also recorded: reversed the DOI alleviation of the naloxone-induced flush” and the “effect on tail skin temperature (TST) prior to naloxone (5-HT2a antagonist-induced flush)” value ([1]; MDL-100907 alone, 0.01 mg/kg sc, 55 min prior to naloxone, 0.01 mg/kg) was “induced hot flush; also recorded: induced a significant increase in TST”. For the same compound, the “effect on naloxone-induced hot flush” value ([1]; MDL-100907 alone, 0.01 mg/kg sc, post-naloxone) was “enhanced the naloxone-induced hot flush”.
With `CNCCCN1c2ccccc2CCc2ccccc21` [desipramine] the “effect of the combination” value ([1]; 15 min post-naloxone) was “efficacy can be enhanced”, the “abatement of naloxone-induced flush on co-administration with 5-HT2a receptor antagonist” value ([1]; desipramine 1.0 mg/kg sc + MDL-100907 0.01 mg/kg sc, 15 min post-naloxone) was 80% and the “abatement of naloxone-induced hot flush” value ([1]; desipramine alone, approximate ED50 (1.0 mg/kg sc), ovariectomized morphine-dependent rats) was 50%. For the same compound, the “effect on MDL-100907-induced pre-naloxone flush (words)” value (shortened to “effect … (words)”) [1] was “abates an MDL-100907-induced flush”, the “effect … (words)” value ([1]; listed as Desipramine) was “reversed” and the “abatement of 5-HT2a receptor antagonist-induced pre-naloxone flush” value [1] was 75%. The “side effects of high doses alone” value [2] was “can induce vomiting, nausea, sweating and flushes”.
In the case of `CNCCC(Oc1ccc(C(F)(F)F)cc1)c1ccccc1` (centres unmarked) [fluoxetine], the “side effects of high doses alone” value [2] is listed as “can induce vomiting, nausea, sweating and flushes”.
In the case of `COc1ccc(C(CN(C)C)C2(O)CCCCC2)cc1` (centres unmarked) [venlafaxine], the “effect of the combination” value ([1]; 15 min post-naloxone) is reported as “enhanced abatement of a naloxone-induced flush; also recorded: can enhance this effect”, the “effect … (words)” value [1] is reported as “abates an MDL-100907-induced flush” and the “effect … (words)” value ([1]; listed as Venlafaxine) is reported as “reversed”. For the same compound, the “abatement of 5-HT2a receptor antagonist-induced pre-naloxone flush” value [1] was 60%.

From patent US20040180879A1, “Novel method of treating vasomotor symptoms” (priority 2002, published 2004)
